Among the data in PubChem BioAssay (NCI) are GI50 and TGI values, retold here.

Test systems include DU-145 prostate; M14 melanoma; MOLT-4 leukemia; NCI-H23 lung; NCI/ADR-RES ovarian; OVCAR-4 ovarian; SK-MEL-5 melanoma; T-47D breast; U251 CNS; UO-31 renal.
Common to all, as to assay: growth of human tumour cells (NCI), 48 h

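Results reflect a 48-hour exposure of cells in 96-well plates to compound at five concentrations. GI50: concentration for 50% inhibition of growth. TGI marks complete inhibition of growth.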

As to `Nc1nc(-n2c(-c3ccccc3)nc3c(Br)cc(Br)cc3c2=O)nnc1-c1cccc(Cl)c1Cl`, the GI50 was 27.3 µM with DU-145 prostate; 2.64 µM in the test with M14 melanoma; 25.4 µM in the test with MOLT-4 leukemia; 15.7 µM with NCI-H23 lung; 2.01 µM with NCI/ADR-RES ovarian; 51.7 µM with OVCAR-4 ovarian. Besides, the GI50 in the test on SK-MEL-5 melanoma is 4.65 µM; in the test on T-47D breast, more than 100 µM; in the test with U251 CNS, 6.87 µM; with UO-31 renal it was 40.2 µM. Also, the TGI is more than 100 µM with DU-145 prostate; 8.42 µM in the test on M14 melanoma; more than 100 µM in the test with MOLT-4 leukemia; 53.1 µM with NCI-H23 lung; 6.88 µM in the test with NCI/ADR-RES ovarian; more than 100 µM with OVCAR-4 ovarian. Further, the TGI in the test with SK-MEL-5 melanoma was 28.3 µM; with T-47D breast, more than 100 µM; in the test on U251 CNS it was 27.1 µM; with UO-31 renal, more than 100 µM.

`c1ccc(-c2nc(-c3ccccc3SSc3ccccc3-c3nc(-c4ccccc4)nn3-c3ccccc3)n(-c3ccccc3)n2)cc1`: the TGI with DU-145 prostate, in the test on M14 melanoma, in the test with MOLT-4 leukemia, with NCI-H23 lung, in the test on NCI/ADR-RES ovarian and with T-47D breast was more than 100 µM each time. In addition, the TGI in the test with U251 CNS and in the test with UO-31 renal was more than 100 µM each time.

Turning to `CCN(CC)N=Nc1c(C(N)=O)n[nH]c1C`, the TGI with DU-145 prostate, with M14 melanoma, with NCI-H23 lung, with NCI/ADR-RES ovarian, with OVCAR-4 ovarian and in the test with SK-MEL-5 melanoma was more than 100 µM each time. Further, the TGI in the test on T-47D breast, in the test on U251 CNS and with UO-31 renal was more than 100 µM in each case.

For the compound `CCN1CCN(Cc2ccc(NC(=O)c3cccc(C#Cc4cccc5[nH]nc(N)c45)c3)cc2C(F)(F)F)CC1`, the GI50 was 0.419 µM in the test with DU-145 prostate; 0.0622 µM with M14 melanoma; 0.227 µM with MOLT-4 leukemia; 1.59 µM in the test on NCI/ADR-RES ovarian; 0.198 µM in the test with OVCAR-4 ovarian; 0.975 µM in the test on T-47D breast. For the same compound, in the test on UO-31 renal, the GI50 was 0.299 µM. Also, the TGI in the test on DU-145 prostate worked out at 1.68 µM; in the test on M14 melanoma, 0.547 µM; in the test on MOLT-4 leukemia, 1.16 µM; in the test on NCI/ADR-RES ovarian it was 5.21 µM; in the test on OVCAR-4 ovarian, 1.61 µM; in the test on T-47D breast, 3.39 µM. This compound returned a TGI with UO-31 renal of 1.28 µM.

For `COc1cnc2c(c1)C(=O)c1c-2n(CCCN2CCOCC2)c(=O)c2cc(F)ccc12`, the GI50 is 0.341 µM with DU-145 prostate; 0.288 µM in the test on M14 melanoma; 0.106 µM in the test on MOLT-4 leukemia; 0.284 µM in the test with NCI-H23 lung; 0.299 µM in the test on NCI/ADR-RES ovarian; 0.352 µM with OVCAR-4 ovarian. In addition, the values for the GI50 in the test with SK-MEL-5 melanoma, in the test on T-47D breast and in the test with U251 CNS were 0.169 µM, 0.118 µM and 0.0936 µM, respectively. Moreover, the TGI is more than 100 µM with DU-145 prostate; more than 100 µM in the test with M14 melanoma; 0.637 µM in the test with MOLT-4 leukemia; 1.84 µM in the test with NCI-H23 lung; more than 100 µM in the test on NCI/ADR-RES ovarian; more than 100 µM in the test with OVCAR-4 ovarian. Also, the TGI was determined as 0.446 µM in the test on SK-MEL-5 melanoma, 0.69 µM with T-47D breast and 0.563 µM in the test with U251 CNS.

Turning to `Clc1ccccc1C(SCc1ccccc1)SCc1ccccc1`, the TGI in the test with DU-145 prostate, in the test on M14 melanoma, with MOLT-4 leukemia, in the test on NCI-H23 lung, in the test on NCI/ADR-RES ovarian and in the test with OVCAR-4 ovarian was more than 100 µM throughout. In addition, the TGI with SK-MEL-5 melanoma, with U251 CNS and in the test with UO-31 renal was more than 100 µM throughout.

Take `CC(=O)OC1OC([C@@H]2c3cccc(O)c3C(=O)c3c(O)cc(C)cc32)C(O)C(O)C1O` (stereo partly drawn): the GI50 in the test on DU-145 prostate is 0.137 µM; with M14 melanoma it was 0.12 µM; in the test with MOLT-4 leukemia, 0.0384 µM; with NCI-H23 lung it was less than 0.0199 µM; with NCI/ADR-RES ovarian it was 0.0391 µM; in the test with SK-MEL-5 melanoma, less than 0.0119 µM. Also, the GI50 in the test on T-47D breast is 0.306 µM; with U251 CNS it was less than 0.0152 µM; in the test on UO-31 renal it was 0.0419 µM. The TGI worked out at 1.69 µM in the test with DU-145 prostate; 1.9 µM with M14 melanoma; 0.662 µM in the test on MOLT-4 leukemia; 0.216 µM with NCI-H23 lung; 0.773 µM in the test on NCI/ADR-RES ovarian; 0.0294 µM with SK-MEL-5 melanoma. Besides, the figures for the TGI in the test with T-47D breast, in the test with U251 CNS and in the test with UO-31 renal were 0.87 µM, 0.257 µM and 1.11 µM, respectively.

Regarding `CO/C(=N\N=C\c1ccc(C(F)(F)F)cc1)c1ccncc1`, the TGI with DU-145 prostate, with M14 melanoma, with MOLT-4 leukemia, in the test on NCI-H23 lung, in the test on NCI/ADR-RES ovarian and in the test with OVCAR-4 ovarian was more than 10 µM in each case. Further, the TGI in the test on T-47D breast, in the test with U251 CNS and with UO-31 renal was more than 10 µM throughout.

`COC(=O)CC[N+]1=CCC(c2ccccc2)(c2ccccc2)O1`: the TGI with DU-145 prostate, in the test on M14 melanoma, in the test with MOLT-4 leukemia, with NCI-H23 lung, in the test with OVCAR-4 ovarian and with SK-MEL-5 melanoma was more than 100 µM in each case. Further, the TGI in the test on T-47D breast, in the test on U251 CNS and in the test with UO-31 renal was more than 100 µM in each case.

As to `COc1cc2cc(OC)c3cc4c(cc3c2c(OC)c1OC)OCO4`, the TGI is more than 62.1 µM in the test with M14 melanoma; more than 85.8 µM with MOLT-4 leukemia; more than 81.2 µM with NCI-H23 lung; more than 100 µM with OVCAR-4 ovarian; more than 57.2 µM in the test with SK-MEL-5 melanoma; more than 59.3 µM in the test with U251 CNS. In the test on UO-31 renal, this compound came in with a TGI of more than 67.8 µM.

Turning to `Cc1nc2c(ccc3ncccc32)[nH]1`, the TGI with M14 melanoma, with MOLT-4 leukemia, in the test on NCI-H23 lung, in the test with OVCAR-4 ovarian, with SK-MEL-5 melanoma and with U251 CNS was more than 100 µM throughout. Further, in the test with UO-31 renal, the TGI was more than 100 µM.
